Experimental data: PubChem BioAssay (NCI)
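96-well plates; 48 h exposure; 5 concentrations. Endpoints by linear interpolation between flanking doses. Not reached: highest tested concentration assigned. At the TGI there is no net growth.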

Experiments:
Assay in all cases: NCI-60 cell line screen, 48 h
UO-31 renal = tested on: UO-31 renal
SK-OV-3 ovarian = tested on: SK-OV-3 ovarian
KM12 colon = tested on: KM12 colon
HL-60(TB) leukemia = tested on: HL-60(TB) leukemia
XF 498 CNS = tested on: XF 498 CNS
HCT-15 colon = tested on: HCT-15 colon
HOP-92 NSCLC = tested on: HOP-92 NSCLC
KM20L2 colon = tested on: KM20L2 colon
RXF 393 renal = tested on: RXF 393 renal
MALME-3M melanoma = tested on: MALME-3M melanoma
SF-539 CNS = tested on: SF-539 CNS
SNB-75 CNS = tested on: SNB-75 CNS
UACC-257 melanoma = tested on: UACC-257 melanoma
U251 CNS = tested on: U251 CNS
SF-295 CNS = tested on: SF-295 CNS
SK-MEL-5 melanoma = tested on: SK-MEL-5 melanoma
EKVX NSCLC = tested on: EKVX NSCLC
HCT-116 colon = tested on: HCT-116 colon
SW-620 colon = tested on: SW-620 colon
RPMI-8226 leukemia = tested on: RPMI-8226 leukemia
OVCAR-3 ovarian = tested on: OVCAR-3 ovarian
CCRF-CEM leukemia = tested on: CCRF-CEM leukemia
A549 NSCLC = tested on: A549 NSCLC
SNB-19 CNS = tested on: SNB-19 CNS
COLO 205 colon = tested on: COLO 205 colon
IGROV1 ovarian = tested on: IGROV1 ovarian
K-562 leukemia = tested on: K-562 leukemia
HCC-2998 colon = tested on: HCC-2998 colon
DMS 114 small cell lung = tested on: DMS 114 small cell lung
ACHN renal = tested on: ACHN renal
LOX IMVI melanoma = tested on: LOX IMVI melanoma
LXFL 529 NSCLC = tested on: LXFL 529 NSCLC
TK-10 renal = tested on: TK-10 renal
HT29 colon = tested on: HT29 colon
UACC-62 melanoma = tested on: UACC-62 melanoma
M19-MEL melanoma = tested on: M19-MEL melanoma
NCI-H23 lung = tested on: NCI-H23 lung
NCI-H522 lung = tested on: NCI-H522 lung
SF-268 CNS = tested on: SF-268 CNS
CAKI-1 renal = tested on: CAKI-1 renal
SK-MEL-28 melanoma = tested on: SK-MEL-28 melanoma
MOLT-4 leukemia = tested on: MOLT-4 leukemia
RXF-631 renal = tested on: RXF-631 renal
HOP-62 NSCLC = tested on: HOP-62 NSCLC
SNB-78 CNS = tested on: SNB-78 CNS
M14 melanoma = tested on: M14 melanoma
A498 renal = tested on: A498 renal
SK-MEL-2 melanoma = tested on: SK-MEL-2 melanoma
HOP-18 NSCLC = tested on: HOP-18 NSCLC
SR leukemia = tested on: SR leukemia
SN12C renal = tested on: SN12C renal
OVCAR-5 ovarian = tested on: OVCAR-5 ovarian
NCI-H460 lung = tested on: NCI-H460 lung
OVCAR-8 ovarian = tested on: OVCAR-8 ovarian
786-0 renal = tested on: 786-0 renal
NCI-H226 lung = tested on: NCI-H226 lung
DMS 273 small cell lung = tested on: DMS 273 small cell lung

Measured: TGI

Cc1ccc(NC(=O)CC/C(CC(=O)C(C)(C)C)=N/Nc2nnc(C)n2N)cc1C
> 100 µM: all assays above
